{"source": "patent US20220125792A1", "about": "“USE OF COMPOSITION CONTAINING CDK4/6 INHIBITOR IN COMBINATION WITH ANASTROZOLE IN PREPARATION OF MEDICAMENT FOR TREATING TUMOR DISEASES” (Jiangsu Hengrui Medicine Co., Ltd., priority 2019, published 2022)", "origin": "cited, not measured here", "key": {"[1]": {"test_system": "systemic aromatization and plasma estrogen level", "details": "letrozole 2.5 mg once a day, postmenopausal women with metastatic breast cancer"}}}
{"smiles": "N#Cc1ccc(C(c2ccc(C#N)cc2)n2cncn2)cc1", "note": "[letrozole]", "values": [{"measurement": "inhibition of systemic aromatization and plasma estrogen level, compared with anastrozole (1 mg daily)", "setting": "[1]", "value": "more effective systemic aromatization and plasma estrogen level inhibitor than anastrozole"}, {"measurement": "total remission rate (ORR), letrozole versus anastrozole", "setting": "advanced breast cancer; European Journal of Cancer 39 (2003) 2318-2327", "value": "significantly superior to anastrozole"}, {"measurement": "response of advanced breast cancer, second-line hormonal therapy, letrozole versus anastrozole", "setting": "advanced breast cancer; open randomized trial", "value": "responded more strongly to letrozole than to anastrozole"}]}
